Drawing on patent publication US9145411B2, “Substituted amino-pyrimidine derivatives” (Asana Biosciences, LLC, priority 2012, dated 2015), this text covers IC50 for 19 compounds.

pIC50: −log10 of the molar value. A value given as a limit tells only on which side of the number the result lay.

As usually defined, the pIC50 is −log10 of the IC50, conventionally taken in molar units. Read a high pIC50 as a small IC50.

One assay addresses T1, PI3Kα (wild-type) (Homo sapiens, UniProt P42336).
T1 construct: made in house; host or cells: SF9 insect cells
The experiment in a line: PI3 Kinase TR-FRET assay, PI3Kα (wild-type). In kind it is biochemical. Conditions: wild-type P110/P85α, 10 μM ATP. The method in brief:
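Sf9-expressed, Ni-purified p110/p85α (5 ng) with PIP2 was preincubated with compound for 60 min at room temperature in buffer with 40 mM MgCl2 and 5 mM DTT. The reaction ran 30 min at room temperature with 10 μM PIP2 and 10 μM ATP. The TR-FRET 665/615 nm ratio was used to derive IC50 from dose-response curves.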
On the technique in general: TR-FRET usually uses a lanthanide donor and a delayed reading to cut background.

The target in the next assay is T2, mTOR kinase (Homo sapiens, UniProt P42345).
T2 construct: purchased Millipore, USA
Description: mTOR kinase TR-FRET assay. It counts as biochemical. Conditions: 20 μM ATP. The method in brief: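 Test compounds were pre-incubated 60 min with mTOR (5 ng), then ULight-p70 S6K (Thr389) peptide (50 nM) and ATP (20 μM) were added in HEPES 50 mM pH 7.5, EGTA, MnCl2 3 mM. After 60 min at room temperature, EDTA stop and Eu-anti-phospho antibody TR-FRET (665/615 nm) gave IC50 from sigmoidal variable-slope fits.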

The test system of the next assay is pAkt(T308). Description: In-cell Western assay, pAkt(T308), PC3 cells. In kind it is cell-based. The following applies: Homo sapiens, PC-3, 2 hours incubation. As for the experimental part: Cells from human prostate cancer cell line PC3 (American Type Culture Collection (ATCC), Manassas, Va. 20108 USA) were seeded at an optimal density of 22,000 cell/well in 96-well plates containing Ham's F12K medium (90 μL) and incubated overnight. The compound dilutions were carried out in 100% DMSO followed by a dilution in the medium. Test compounds were added in serial dilutions to the wells and incubated for 2 hours. The cells were washed and fixed with 4% paraformaldehyde. After incubation at room temperature for 1 hour in the dark, blocking was done for 2 hours at room temperature. Primary antibodies for pAkt(S473) ([…] phosphorylated at serine 473), pAkt(T308) (Akt phosphorylated at threonine 308) and for pS6RP (S235/236) (phosphorylated at serine 235/236) (commercially available from Cell Signaling Technology®, whose protocol was followed for the in-cell western assay, were diluted to the required concentration and added to the corresponding wells followed by overnight incubation at 4° C. Eu-labeled rabbit (PE) (Perkin-Elmer USA catalog #AD0106) secondary antibody was added and incubated for 2 hours at room temperature. Delfia® enhancement solution (cat #1244-105, Perkin Elmer USA) was subsequently added to the plate before taking the reading at 615 nm with excitation wavelength of 340 nm, after which 0.5 μg/mL of Hoechst® 33258 dye (Catalog #86140-5, Sigma) was added to the plate and fluorescence emission was read at 460 nm with 355 nm excitation, to evaluate the correction factor. IC50 values were calculated using a sigmoidal dose-response curve fit in GraphPad Prism® v5 software.

A further assay relates to PC3 cells. The experiment in a line: XTT assay for cell viability, PC3 cells. It counts as cell-based. The following applies: Homo sapiens, PC-3; PC3 cell proliferation, 96 hours. The method in brief: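 Log-phase PC3 cells (1000/well) were seeded for 24 h, then exposed to serially diluted compounds (DMSO dilutions) for 96 h. Viability was measured by XTT dye conversion at 37 °C, with absorbance read at 465 nm. EC50 was obtained from a sigmoidal dose-response fit.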
(Tetrazolium dyes change colour on reduction, which living cells bring about.)

T1 sequence (P42336 whole entry, species assumed): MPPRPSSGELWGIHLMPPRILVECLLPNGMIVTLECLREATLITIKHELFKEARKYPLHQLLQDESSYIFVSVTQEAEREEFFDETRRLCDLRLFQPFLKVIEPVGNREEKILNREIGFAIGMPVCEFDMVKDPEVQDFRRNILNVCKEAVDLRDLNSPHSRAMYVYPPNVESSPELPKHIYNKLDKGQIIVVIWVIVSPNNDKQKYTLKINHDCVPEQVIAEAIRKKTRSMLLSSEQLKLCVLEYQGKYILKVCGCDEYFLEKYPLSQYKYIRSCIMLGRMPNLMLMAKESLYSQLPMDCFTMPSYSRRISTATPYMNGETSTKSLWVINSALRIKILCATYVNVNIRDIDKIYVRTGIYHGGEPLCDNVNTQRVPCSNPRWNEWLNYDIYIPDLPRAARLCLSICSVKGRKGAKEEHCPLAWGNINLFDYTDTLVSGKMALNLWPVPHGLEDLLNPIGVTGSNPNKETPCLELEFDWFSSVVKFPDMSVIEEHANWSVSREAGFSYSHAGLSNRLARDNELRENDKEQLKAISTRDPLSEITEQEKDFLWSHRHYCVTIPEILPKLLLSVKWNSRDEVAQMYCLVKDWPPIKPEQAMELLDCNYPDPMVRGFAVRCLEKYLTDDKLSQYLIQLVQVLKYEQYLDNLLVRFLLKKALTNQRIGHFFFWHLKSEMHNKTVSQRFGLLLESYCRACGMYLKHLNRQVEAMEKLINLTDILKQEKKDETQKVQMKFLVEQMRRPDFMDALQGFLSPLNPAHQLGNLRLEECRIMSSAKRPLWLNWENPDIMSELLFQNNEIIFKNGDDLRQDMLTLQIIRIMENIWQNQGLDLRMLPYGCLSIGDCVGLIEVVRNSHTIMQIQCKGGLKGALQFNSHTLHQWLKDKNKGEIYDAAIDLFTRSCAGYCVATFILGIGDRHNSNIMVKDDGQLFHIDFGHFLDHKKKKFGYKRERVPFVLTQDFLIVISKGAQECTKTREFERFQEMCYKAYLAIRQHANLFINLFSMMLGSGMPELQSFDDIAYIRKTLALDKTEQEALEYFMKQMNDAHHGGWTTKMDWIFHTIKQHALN
T1 sequence (P27986 whole entry partner, species assumed): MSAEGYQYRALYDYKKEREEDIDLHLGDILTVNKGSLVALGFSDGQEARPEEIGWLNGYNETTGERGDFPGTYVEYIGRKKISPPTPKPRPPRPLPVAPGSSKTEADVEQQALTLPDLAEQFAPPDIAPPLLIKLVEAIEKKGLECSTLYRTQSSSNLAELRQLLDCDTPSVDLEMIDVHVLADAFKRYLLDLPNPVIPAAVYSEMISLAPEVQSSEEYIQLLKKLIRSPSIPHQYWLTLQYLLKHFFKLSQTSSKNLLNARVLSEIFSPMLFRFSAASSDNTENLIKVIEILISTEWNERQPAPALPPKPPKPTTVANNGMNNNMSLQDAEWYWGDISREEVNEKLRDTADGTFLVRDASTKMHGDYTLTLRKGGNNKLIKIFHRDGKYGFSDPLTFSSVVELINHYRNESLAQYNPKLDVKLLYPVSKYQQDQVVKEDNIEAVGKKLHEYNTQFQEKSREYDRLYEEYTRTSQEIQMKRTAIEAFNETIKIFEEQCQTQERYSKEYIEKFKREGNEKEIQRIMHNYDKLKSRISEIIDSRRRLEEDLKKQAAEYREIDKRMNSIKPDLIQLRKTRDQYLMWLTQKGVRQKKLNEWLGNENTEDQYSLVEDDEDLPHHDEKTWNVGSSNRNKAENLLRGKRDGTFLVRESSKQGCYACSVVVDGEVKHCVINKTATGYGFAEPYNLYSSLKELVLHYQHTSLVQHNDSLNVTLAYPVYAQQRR
T2 sequence (P42345 1362-2549 limits assumed): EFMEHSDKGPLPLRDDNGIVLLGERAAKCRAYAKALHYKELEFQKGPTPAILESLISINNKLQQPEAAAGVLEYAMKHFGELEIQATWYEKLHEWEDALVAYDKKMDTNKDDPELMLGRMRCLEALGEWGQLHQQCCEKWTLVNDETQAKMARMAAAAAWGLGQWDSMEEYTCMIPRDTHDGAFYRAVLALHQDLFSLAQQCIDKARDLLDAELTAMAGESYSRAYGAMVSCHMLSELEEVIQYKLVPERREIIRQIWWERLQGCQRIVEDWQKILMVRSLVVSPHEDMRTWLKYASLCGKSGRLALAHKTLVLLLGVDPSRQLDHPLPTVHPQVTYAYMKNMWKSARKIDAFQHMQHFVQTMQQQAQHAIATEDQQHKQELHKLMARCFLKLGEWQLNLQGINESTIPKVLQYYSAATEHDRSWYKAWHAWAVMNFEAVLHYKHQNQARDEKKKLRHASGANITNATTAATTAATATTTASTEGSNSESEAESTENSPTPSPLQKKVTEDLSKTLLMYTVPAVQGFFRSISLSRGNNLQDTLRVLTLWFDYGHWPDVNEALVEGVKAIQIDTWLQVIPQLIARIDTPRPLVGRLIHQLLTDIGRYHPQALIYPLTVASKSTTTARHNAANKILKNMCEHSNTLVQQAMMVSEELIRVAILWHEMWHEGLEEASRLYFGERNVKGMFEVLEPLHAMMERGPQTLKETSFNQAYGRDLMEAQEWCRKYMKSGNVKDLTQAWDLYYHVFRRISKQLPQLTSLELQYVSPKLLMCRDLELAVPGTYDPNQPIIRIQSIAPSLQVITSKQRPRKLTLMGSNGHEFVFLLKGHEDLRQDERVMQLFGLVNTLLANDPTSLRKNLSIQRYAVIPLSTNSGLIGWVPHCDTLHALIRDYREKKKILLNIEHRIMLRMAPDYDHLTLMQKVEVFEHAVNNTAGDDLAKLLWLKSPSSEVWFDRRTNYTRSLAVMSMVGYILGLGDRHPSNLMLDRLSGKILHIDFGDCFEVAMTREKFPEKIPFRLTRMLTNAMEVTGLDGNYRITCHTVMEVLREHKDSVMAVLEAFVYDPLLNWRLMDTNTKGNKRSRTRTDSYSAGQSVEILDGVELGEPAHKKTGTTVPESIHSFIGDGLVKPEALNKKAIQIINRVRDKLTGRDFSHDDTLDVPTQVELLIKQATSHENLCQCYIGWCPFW

With `Nc1ncc(-c2nc(N3CCOCC3)c3ncc(-c4cccc(NC(=O)CO)c4)cc3n2)cn1` [Example 50, N-(3-(2-(2-amino-pyrimidin-5-yl)-4-morpholinopyrido[3,2-d]pyrimidin-7-yl)phenyl)-2-hydroxyacetamide], the pIC50 against PI3Kα (wild-type) is above 7.30; on mTOR kinase, above 7.30; in the assay on pAkt(T308), 5.30 to 6.30; in the assay on PC3 cells it was 6.30 to 7.00.

For the compound `N#CCC(=O)Nc1cccc(-c2cnc3c(N4CCOCC4)nc(-c4cnc(N)nc4)nc3c2)c1` [Example 53, N-(3-(2-(2-amino-pyrimidin-5-yl)-4-morpholinopyrido[3,2-d]pyrimidin-7-yl)phenyl)-2-cyanoacetamide], the pIC50 against PI3Kα (wild-type) is above 7.30; against mTOR kinase it was above 7.30; in the assay on pAkt(T308), 6.30 to 7.00; with PC3 cells, 6.30 to 7.00.

On to `CC(=O)Nc1ccc(-c2cnc3c(N4CCOCC4)nc(-c4cnc(N)nc4)nc3c2)cc1` [Example 54, N-(4-(2-(2-amino-pyrimidin-5-yl)-4-morpholinopyrido[3,2-d]pyrimidin-7-yl)-phenyl)acetamide], for which the pIC50 against PI3Kα (wild-type) is above 7.30; against mTOR kinase, above 7.30; in the assay on pAkt(T308), above 7.00; in the assay with PC3 cells, 6.30 to 7.00.

Regarding `CC(=O)Nc1cccc(-c2cnc3c(N4CCOCC4)nc(-c4cnc(N)nc4)nc3c2)c1C` [Example 56, N-(3-(2-(2-amino-pyrimidin-5-yl)-4-morpholinopyrido[3,2-d]pyrimidin-7-yl)-2-methylphenyl)acetamide], the pIC50 was above 7.30 against PI3Kα (wild-type), 6.70 to 7.30 against mTOR kinase, 6.30 to 7.00 in the assay with pAkt(T308) and 6.30 to 7.00 in the assay on PC3 cells.

With `Nc1ncc(-c2nc(N3CCOCC3)c3ncc(-c4cccc(NC(=O)C5CCCC5)c4)cc3n2)cn1` [Example 57, N-(3-(2-(2-amino-pyrimidin-5-yl)-4-morpholinopyrido[3,2-d]pyrimidin-7-yl)-phenyl)cyclopentane-carboxamide], the negative logarithm of the IC50 (pIC50) at PI3Kα (wild-type) was above 7.30; against mTOR kinase, above 7.30; in the assay on pAkt(T308), 6.30 to 7.00; in the assay with PC3 cells, 5.30 to 6.30.

As to `Nc1ncc(-c2nc(N3CCOCC3)c3ncc(-c4cccc(NC(=O)c5cccnc5)c4)cc3n2)cn1` [Example 58, N-(3-(2-(2-amino-pyrimidin-5-yl)-4-morpholinopyrido[3,2-d]pyrimidin-7-yl)-phenyl)nicotinamide], the pIC50 was above 7.30 on PI3Kα (wild-type), above 7.30 at mTOR kinase, above 7.00 in the assay on pAkt(T308) and 6.30 to 7.00 with PC3 cells.

On to `CC(C)CCC(=O)Nc1cccc(-c2cnc3c(N4CCOCC4)nc(-c4cnc(N)nc4)nc3c2)c1` [Example 66, N-(3-(2-(2-amino-pyrimidin-5-yl)-4-morpholinopyrido[3,2-d]pyrimidin-7-yl)phenyl)-4-methylpentanamide], for which the negative logarithm of the IC50 (pIC50) against PI3Kα (wild-type) is above 7.30; at mTOR kinase, above 7.30; in the assay with pAkt(T308), 5.30 to 6.30; in the assay on PC3 cells, 6.30 to 7.00.

Regarding `Nc1ncc(-c2nc(N3CCOCC3)c3ncc(-c4cccc(NC(=O)c5ccco5)c4)cc3n2)cn1` [Example 67, N-(3-(2-(2-amino-pyrimidin-5-yl)-4-morpholinopyrido[3,2-d]pyrimidin-7-yl)-phenyl)furan-2-carboxamide], the pIC50 at PI3Kα (wild-type) was above 7.30; against mTOR kinase, above 7.30; in the assay with pAkt(T308), 6.30 to 7.00; with PC3 cells it was 6.30 to 7.00.

Regarding `Nc1ncc(-c2nc(N3CCOCC3)c3ncc(-c4cccc(NC(=O)c5cnccc5C(F)(F)F)c4)cc3n2)cn1` [Example 68, N-(3-(2-(2-amino-pyrimidin-5-yl)-4-morpholinopyrido[3,2-d]pyrimidin-7-yl)phenyl)-4-(trifluoromethyl)-nicotinamide], the pIC50 against PI3Kα (wild-type) is above 7.30; against mTOR kinase it was above 7.30; in the assay on pAkt(T308), above 7.00; with PC3 cells, 6.30 to 7.00.

In the case of `Nc1ncc(-c2nc(N3CCOCC3)c3ncc(-c4cccc(NC(=O)C5CCC(O)CC5)c4)cc3n2)cn1` (stereo not shown) [Example 70, N-(3-(2-(2-amino-pyrimidin-5-yl)-4-morpholinopyrido[3,2-d]pyrimidin-7-yl)phenyl)-4-hydroxycyclohexane-carboxamide], the pIC50 was above 7.30 against PI3Kα (wild-type), above 7.30 against mTOR kinase, 6.30 to 7.00 with pAkt(T308) and 6.30 to 7.00 in the assay on PC3 cells.

Turning to `Nc1ncc(-c2nc(N3CCOCC3)c3ncc(-c4cccc(NC(=O)C5CCC5)c4)cc3n2)cn1` [Example 76, N-(3-(2-(2-amino-pyrimidin-5-yl)-4-morpholinopyrido[3,2-d]pyrimidin-7-yl)-phenyl)cyclobutane-carboxamide], the pIC50 is above 7.30 against PI3Kα (wild-type), above 7.30 against mTOR kinase, above 7.00 with pAkt(T308) and 6.30 to 7.00 in the assay with PC3 cells.

In the case of `Nc1ncc(-c2nc(N3CCOCC3)c3ncc(-c4cccc(NS(=O)(=O)C5CC5)c4)cc3n2)cn1` [Example 81, N-(3-(2-(2-amino-pyrimidin-5-yl)-4-morpholinopyrido[3,2-d]pyrimidin-7-yl)-phenyl)cyclopropane-sulfonamide], the pIC50 against PI3Kα (wild-type) is above 7.30; on mTOR kinase, above 7.30; in the assay with pAkt(T308), above 7.00; in the assay on PC3 cells, 6.30 to 7.00.

As to `Nc1ncc(-c2nc(N3CCOCC3)c3ncc(-c4ccc(NS(=O)(=O)C5CC5)cc4)cc3n2)cn1` [Example 82, N-(4-(2-(2-amino-pyrimidin-5-yl)-4-morpholinopyrido[3,2-d]-pyrimidin-7-yl)phenyl)-cyclopropanesulfonamide], the negative-log IC50 (pIC50) at PI3Kα (wild-type) is above 7.30; at mTOR kinase it was above 7.30; with pAkt(T308) it was above 7.00; in the assay with PC3 cells, 6.30 to 7.00.

Take `Nc1ncc(-c2nc(N3CCOCC3)c3ncc(-c4cccc(NC(=O)CN5CCOCC5)c4)cc3n2)cn1` [Example 84, N-(3-(2-(2-aminopyrimidin-5-yl)-4-morpholinopyrido[3,2-d]pyrimidin-7-yl)phenyl)-2-morpholinoacetamide]: the pIC50 against PI3Kα (wild-type) was above 7.30; on mTOR kinase, above 7.30; in the assay with pAkt(T308), 6.30 to 7.00; in the assay with PC3 cells, 6.30 to 7.00.

For the compound `CN1CCN(CC(=O)Nc2ccc(F)c(-c3cnc4c(N5CCOCC5)nc(-c5cnc(N)nc5)nc4c3)c2)CC1` [Example 85, N-(3-(2-(2-aminopyrimidin-5-yl)-4-morpholinopyrido[3,2-d]pyrimidin-7-yl)-4-fluorophenyl)-2-(4-methylpiperazin-1-yl)-acetamide], the pIC50 against PI3Kα (wild-type) is above 7.30; against mTOR kinase, above 7.30; in the assay with pAkt(T308), 6.30 to 7.00; in the assay with PC3 cells, 6.30 to 7.00.

Regarding `CNC(=O)c1cccc(-c2cnc3c(N4CCOCC4)nc(-c4cnc(N)nc4)nc3c2)c1` [Example 103, 3-(2-(2-aminopyrimidin-5-yl)-4-morpholinopyrido[3,2-d]-pyrimidin-7-yl)-N-methylbenzamide], the pIC50 on PI3Kα (wild-type) is above 7.30; against mTOR kinase, 6.70 to 7.30; in the assay on pAkt(T308), above 7.00; in the assay with PC3 cells it was above 7.00.

As to `CCC(=O)Nc1cccc(-c2cnc3c(N4CCOCC4)nc(-c4cnc(N)nc4)nc3c2)c1` [Example 104, N-(3-(2-(2-amino-pyrimidin-5-yl)-4-morpholinopyrido[3,2-d]-pyrimidin-7-yl)-phenyl)propionamide], the pIC50 on PI3Kα (wild-type) is above 7.30; on mTOR kinase, above 7.30; in the assay on pAkt(T308), above 7.00; in the assay on PC3 cells, 6.30 to 7.00.

On to `CC(C)C(=O)Nc1cccc(-c2cnc3c(N4CCOCC4)nc(-c4cnc(N)nc4)nc3c2)c1` [Example 105, N-(3-(2-(2-amino-pyrimidin-5-yl)-4-morpholinopyrido[3,2-d]-pyrimidin-7-yl)-phenyl)isobutyramide], for which the pIC50 at PI3Kα (wild-type) is above 7.30; on mTOR kinase, above 7.30; in the assay with pAkt(T308) it was 5.30 to 6.30; in the assay with PC3 cells it was 6.30 to 7.00.

With `CC(C)(O)c1cccc(-c2cnc3c(N4CCOCC4)nc(-c4cnc(N)nc4)nc3c2)c1` [Example 109, 2-(3-(2-(2-amino-pyrimidin-5-yl)-4-morpholinopyrido[3,2-d]pyrimidin-7-yl)-phenyl)propan-2-ol], the pIC50 on PI3Kα (wild-type) was above 7.30; on mTOR kinase it was 6.70 to 7.30; in the assay with pAkt(T308) it was 5.30 to 6.30; in the assay with PC3 cells, 6.30 to 7.00.
